Measured values from patent publication US11236106B2, “Cycloalkane-1,3-diamine derivative” (Daiichi Sankyo Company, Limited, priority 2018, dated 2022).
Where a name gives a salt, the structure may show the parent alone. Read-outs that look alike come from different tables or passages of the source.

Biological target: T1, menin and MLL (menin, Flag tagged; biotinylated MLL1 peptide 1-46aa) (Homo sapiens, UniProt O00255)
T1 sequence (O00255 1-610): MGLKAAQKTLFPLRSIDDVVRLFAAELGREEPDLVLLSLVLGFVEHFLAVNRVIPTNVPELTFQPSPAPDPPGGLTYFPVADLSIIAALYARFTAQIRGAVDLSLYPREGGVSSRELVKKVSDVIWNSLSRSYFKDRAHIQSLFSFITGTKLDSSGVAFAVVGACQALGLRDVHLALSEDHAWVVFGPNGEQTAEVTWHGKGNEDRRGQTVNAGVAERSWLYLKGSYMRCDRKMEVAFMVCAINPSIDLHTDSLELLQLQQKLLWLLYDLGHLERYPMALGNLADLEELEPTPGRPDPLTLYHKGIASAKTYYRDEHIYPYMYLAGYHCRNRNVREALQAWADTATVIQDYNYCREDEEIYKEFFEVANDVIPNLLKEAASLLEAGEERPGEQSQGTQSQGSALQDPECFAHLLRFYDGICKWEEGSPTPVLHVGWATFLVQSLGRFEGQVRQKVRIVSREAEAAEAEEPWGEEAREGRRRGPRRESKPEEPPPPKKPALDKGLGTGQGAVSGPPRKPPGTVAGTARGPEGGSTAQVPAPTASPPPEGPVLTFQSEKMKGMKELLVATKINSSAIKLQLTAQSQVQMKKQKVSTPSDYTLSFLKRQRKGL
Assay: biochemical

[1] = IC50, binding inhibitory activity between menin and MLL, AlphaLISA, 1 nM menin, 10 nM biotinylated MLL1 peptide
[2] = cell free IC50 (nM), 1 nM menin, 10 nM biotinylated MLL1 peptide, AlphaLISA

Procedure: Then, the fluorescence signal by AlphaLISA (registered trademark, PerkinElmer Co., Ltd.) was measured using a plate reader (PerkinElmer Co., Ltd., EnVisionXcite).

SMILES	IC50 [1]	IC50 [2]	further results
COc1nc(N(C)[C@H]2C[C@@H](NCc3ccc(-c4cnc(C#N)c(OC)c4)cc3)C[C@H]2O)c2cc(CC(F)(F)F)sc2n1 [Example 106, 5-[4-({[(1R,3R,4S)-3-hydroxy-4-{[2-methoxy-6-(2,2,2-trifluoroethyl)thieno[2,3-d]pyrimidin-4-yl](methyl)amino}cyclopentyl]amino}methyl)phenyl]-3-methoxypyridine-2-carbonitrile hydrochloride]	0.7 nM	–	–
COc1cc(-c2ccc(CN[C@H]3C[C@@H](O)[C@@H](N(C)c4ncnc5sc(CC(F)(F)F)cc45)C3)cc2)nnc1Cl [Example 84, (1R,2S,4R)-4-({[4-(6-chloro-5-methoxypyridazin-3-yl)phenyl]methyl}amino)-2-{methyl[6-(2,2,2-trifluoroethyl)thieno[2,3-d]pyrimidin-4-yl]amino}cyclopentan-1-ol hydrochloride]	2.7 nM	–	–
CN(c1ncnc2sc(CC(F)(F)F)cc12)[C@@H]1CC[C@H](NCc2ccc(OCCO)c(F)c2)C1 [Example 31, 2-[2-fluoro-4-({[(1S,3R)-3-{methyl[6-(2,2,2-trifluoroethyl)thieno[2,3-d]pyrimidin-4-yl]amino}cyclopentyl]amino}methyl)phenoxy]ethan-1-ol hydrochloride]	–	46.4 nM	–
CN(c1ncnc2sc(CC(F)(F)F)cc12)[C@@H]1CC[C@H](NCc2ccc(-c3cnc4ccoc4c3)cc2)C1 [Example 14, (1R,3S)—N^3-{[4-(furo[3,2-b]pyridin-6-yl)phenyl]methyl}-N^1-methyl-N^1-[6-(2,2,2-trifluoroethyl)thieno[2,3-d]pyrimidin-4-yl]cyclopentane-1,3-diamine Hydrochloride]	–	27.4 nM	–
FC(F)(F)Cc1cc2c(N[C@@H]3CCC[C@H](NCc4ccc(-c5nnc[nH]5)cc4)C3)ncnc2s1 [Example 37, (1S,3R)-N^1-{[4-(4H-1,2,4-triazol-3-yl)phenyl]methyl}-N^3-[6-(2,2,2-trifluoroethyl)thieno[2,3-d]pyrimidin-4-yl]cyclohexane-1,3-diamine hydrochloride]	–	701 nM	–
COc1nc(N(C)[C@H]2C[C@@H](NCc3cccc(Nc4cccnc4)c3)C[C@H]2O)c2cc(CC(F)(F)F)sc2n1 [Example 120, (1R,2S,4R)-2-{[2-methoxy-6-(2,2,2-trifluoroethyl)thieno[2,3-d]pyrimidin-4-yl](methyl)amino}-4-[({3-[(pyridin-3-yl)amino]phenyl}methyl)amino]cyclopentan-1-ol hydrochloride]	5.8 nM	–	–
COc1cc(-c2ccc(CN[C@H]3C[C@@H](O)[C@@H](N(C)c4ncnc5sc(CC(F)(F)F)cc45)C3)cc2F)cnc1F [Example 74, (1R,2S,4R)-4-({[3-fluoro-4-(6-fluoro-5-methoxypyridin-3-yl)phenyl]methyl}amino)-2-{methyl[6-(2,2,2-trifluoroethyl)thieno[2,3-d]pyrimidin-4-yl]amino}cyclopentan-1-ol hydrochloride]	6.5 nM	–	–
COc1cc(-c2ccc(CN[C@H]3C[C@@H](O)[C@@H](N(C)c4ncnc5sc(CC(F)(F)F)cc45)C3)c(C)c2)cnc1OC [Example 78, (1R,2S,4R)-4-({[4-(5,6-dimethoxypyridin-3-yl)-2-methylphenyl]methyl}amino)-2-{methyl[6-(2,2,2-trifluoroethyl)thieno[2,3-d]pyrimidin-4-yl]amino}cyclopentan-1-ol hydrochloride]	8.5 nM	–	–
CNc1nc(N(C)[C@H]2C[C@@H](NCc3ccc(-c4cccc(S(=O)(=O)N(C)C)c4)cc3)C[C@H]2O)c2cc(CC(F)(F)F)sc2n1 [Example 69, 4′-({[(1R,3R,4S)-3-hydroxy-4-{methyl[2-(methylamino)-6-(2,2,2-trifluoroethyl)thieno[2,3-d]pyrimidin-4-yl]amino}cyclopentyl]amino}methyl)-N,N-dimethyl[1,1′-biphenyl]-3-sulfonamide hydrochloride]	2.8 nM	–	–
COc1cc(-c2ccc(CN[C@H]3C[C@@H](O)[C@@H](N(C)c4ncnc5sc(CC(F)(F)F)cc45)C3)cc2)nnc1C#N [Example 99, 6-[4-({[(1R,3R,4S)-3-hydroxy-4-{methyl[6-(2,2,2-trifluoroethyl)thieno[2,3-d]pyrimidin-4-yl]amino}cyclopentyl]amino}methyl)phenyl]-4-methoxypyridazine-3-carbonitrile hydrochloride]	1.1 nM	–	–
CNc1nc(N(C)[C@H]2C[C@@H](NCc3ccc(-n4ccnc4)cc3)C[C@H]2O)c2cc(CC(F)(F)F)sc2n1 [Example 61, (1R,2S,4R)-4-({[4-(1H-imidazol-1-yl)phenyl]methyl}amino)-2-{methyl[2-(methylamino)-6-(2,2,2-trifluoroethyl)thieno[2,3-d]pyrimidin-4-yl]amino}cyclopentan-1-ol hydrochloride]	–	1.9 nM	–
CN(c1ncnc2sc(CC(F)(F)F)cc12)[C@@H]1CC[C@H](NCc2ccc(OCCN3CCOCC3)cc2)C1 [Example 30, (1R,3S)-N^1-methyl-N^3-({4-[2-(morpholin-4-yl)ethoxy]phenyl}methyl)-N^1-[6-(2,2,2-trifluoroethyl)thieno[2,3-d]pyrimidin-4-yl]cyclopentane-1,3-diamine hydrochloride]	–	44.6 nM	–
CN(c1ncnc2sc(CC(F)(F)F)cc12)[C@@H]1CC[C@H](NCc2cnn(-c3ccccc3)c2)C1 [Example 32, (1R,3S)-N^1-methyl-N^3-[(1-phenyl-1H-pyrazol-4-yl)methyl]-N^1-[6-(2,2,2-trifluoroethyl)thieno[2,3-d]pyrimidin-4-yl]cyclopentane-1,3-diamine hydrochloride]	–	94.9 nM	–
COc1cc(-c2ccc(CN[C@H]3C[C@@H](O)[C@@H](N(C)c4ncnc5sc(CC(F)(F)F)cc45)C3)cc2)nnc1OC1CCCOC1 (mixture of isomers) [Example 108, (1R,2S,4R)-4-{[(4-{5-methoxy-6-[(oxan-3-yl)oxy]pyridazin-3-yl}phenyl)methyl]amino}-2-{methyl[6-(2,2,2-trifluoroethyl)thieno[2,3-d]pyrimidin-4-yl]amino}cyclopentan-1-ol hydrochloride]	–	–	IC50: 1.3 nM
COc1cc(-c2cnc(OC)c(OC)c2)ccc1CN[C@H]1C[C@@H](O)[C@@H](N(C)c2ncnc3sc(CC(F)(F)F)cc23)C1 [Example 77, (1R,2S,4R)-4-({[4-(5,6-dimethoxypyridin-3-yl)-2-methoxyphenyl]methyl}amino)-2-{methyl[6-(2,2,2-trifluoroethyl)thieno[2,3-d]pyrimidin-4-yl]amino}cyclopentan-1-ol hydrochloride]	10.4 nM	–	–
COc1nc(N(C)[C@H]2C[C@@H](NCc3ccc(-c4cnc(F)c(OC)c4)cc3)C[C@H]2O)c2cc(CC(F)(F)F)sc2n1 [Example 91, (1R,2S,4R)-4-({[4-(6-fluoro-5-methoxypyridin-3yl)phenyl]methyl}amino)-2{[2-methoxy6-(2,2,2-trifluoroethyl)thieno[2,3-d]pyrimidin-4-yl](methyl)amino}cyclopentan-1-ol hydrochloride]	1.3 nM	–	–
COc1nc(N(C)[C@H]2C[C@@H](NCc3ccc(-c4cnc(N(C)C)c(OC)c4)cc3)C[C@H]2O)c2cc(CC(F)(F)F)sc2n1 [Example 117, (1R,2S,4R)-4-[({4-[6-(dimethylamino)-5-methoxypyridin-3-yl]phenyl}methyl)amino]-2-{[2-methoxy-6-(2,2,2-trifluoroethyl)thieno[2,3-d]pyrimidin-4-yl](methyl)amino}cyclopentan-1-ol hydrochloride]	1.4 nM	–	–
